Assay results: US20190175554A1, “METHOD FOR TREATING PRURITUS AND/OR ITCH” (Neurim Pharmaceuticals (1991) Ltd., priority 2016, published 2019)
Several values for one entry are separate records, joined by “and”; a condition that tells them apart may be missing. Equal values may be shown once. Read-outs that look alike come from different tables or passages of the source.

Tests used:
TRPV1 [1] = molecular target: T1, TRPV1 (Homo sapiens, UniProt Q8NER1); assay: TRPV1 calcium influx assay; assay type: cell-based; conditions: for inhibitory effect on TRPV1 mediated calcium influx (in words): 10 μM, significant = three or more SD from agonist mean (37.74% inhibition); for inhibition at 0.1 µM / inhibition at 0.5 µM / inhibition at 1 µM / inhibition at 5 µM / inhibition at 10 µM: read-out: Normalized % inhibition; for inhibition at 0.5 µM: Test conc 0.5 μM; for inhibition at 1 µM: Test conc 1 μM; for inhibition at 5 µM: Test conc 5 μM; for inhibition at 10 µM: Test conc 10 μM
Experimental: Method. The ability of N-[2-(1H-indol-3-yl)-ethyl]-comanilamide, N-[2-(5-methoxy-indol-3-yl)-ethyl]-comanilamide and 2-methyl-4-oxo-4H-pyran-3-yl [2-(5-methoxy-1H-indol-3-yl)ethyl]carbamate to act as antagonists of TRPV1 was evaluated with a calcium influx assay. The signal elicited in the presence of the positive control agonist (0.1 μM capsaicin) was set to 100% and the signal in the presence of the antagonist (0.1 μM capsaicin+3 μM ruthenium red) was set to 0.

TRPV1 [2] = molecular target: T1, TRPV1; assay: TRPV1 calcium influx assay; assay type: cell-based
[3] = tested on: mice, formalin injected into the right hindpaw; assay: Formalin test, hindpaw licking time in mice; assay type: in vivo, mouse; conditions: 100 mg/kg intraperitoneally 30 min before formalin
Experimental: The anti-pruritus activity of pyrone-indole compounds were assessed using this model.
Method. The noxious stimulus is an injection of dilute formalin under the skin of the dorsal surface of the right hindpaw. The response is the amount of time the animals spend licking the injected paw 5-10 minutes (early phase), or 20-30 minutes (late phase) after the injection of formalin. Mice (N=8 per group) were injected intraperitoneally with test compound (100 mg/kg), or morphine (4 mg/kg), or vehicle. Thirty minutes later, formalin (20 μl 2.5% in water) was injected by the subplantar route into the right hindpaw. Hindpaw licking time was recorded in consecutive 5 minute-intervals during the first 10 minutes (early phase), and from 15 to 35 minutes (late phase) after formalin injection.

hNav1.7 = molecular target: T2, hNav1.7 (Homo sapiens, UniProt Q15858); assay: Block of hNav1.x channels expressed in mammalian cells, voltage protocol; assay type: cell-based; conditions: blocking effects on hNav1.x channels, Table 3
T2 construct: expressed in transfected cells
Experimental: Effects of N-[2-(1H-indol-3-yl)-ethyl]-comanilamide, N-[2-(5-methoxy-indol-3-yl)-ethyl]-comanilamide and 2-methyl-4-oxo-4H-pyran-3-yl [2-(5-methoxy-1H-indol-3-yl)ethyl]carbamate on Nav1.x Channels Expressed in Mammalian Cells
Method. A block of hNav1.x channels was measured using the stimulus voltage pattern shown in FIG. 1; voltage potentials are indicated in Table 2, below. The pulse pattern repeated twice: before and 5 minutes after N-[2-(1H-indol-3-yl)-ethyl]-comanilamide, N-[2-(5-methoxy-indol-3-yl)-ethyl]-comanilamide and 2-methyl-4-oxo-4H-pyran-3-yl[2-(5-methoxy-1H-indol-3-yl)ethyl]carbamate addition and peak current amplitudes at […] was measured (ITP1 and ITP2).

[4] = tested on: young male subjects, UVB-irradiated skin; assay: UVB sunburn model in humans, cold pain threshold (CPT); assay type: in vivo, human
Experimental: (§1) The anti-pruritus effect of N-[2-(1H-indol-3-yl)-ethyl]-comanilamide was tested using the UVB sunburn model (R. Rolke et al. (2006), Quantitative sensory testing in the German Research Network on neuropathic pain (DFNS): standardized protocol and reference values, Pain, 123, 231-243) used as an art-accepted surrogate model of itch (Andersen et al., Acta Derm Venereol. 2015; 95(7):771-7. Human surrogate models of histaminergic and non-histaminergic itch.).
(§2) Twenty four young male subjects ([…]N-[2-(1H-indol-3-yl)-ethyl]-comanilamide in escalated doses (300 mg-900 mg) and 6 in the placebo group), were exposed to three times the minimal erythema dose (MED) of UVB light on an approximately 4×4 cm area on the upper part of the leg in the morning of Day (−1) pre-dose on Day 1 and 2.5 hours post—dose on the UVB-irradiated area.
(§3) UVB irradiation causes skin inflammation which is noxious and elicits pronounced inflammation related temperature and mechanical hyperalgesia at the UVB-irradiated site. This hyperalgesia peaks at about 20-24 hours post irradiation after which it slowly subsides. Quantitative sensory testing (QST) assesses characteristic sensory patterns in pain and pruritus models.
(§4) The UVB irradiated skin was obtained by irradiating the marked area (approximately 4×4 cm) of the skin of the upper part of the right leg by three times the MED as determined during the screening. This was done approximately 20 hours prior to dosing.
Cold pain thresholds (CPT) were determined. The mean threshold temperature of five consecutive measurements was calculated. All thresholds were obtained with ramped stimuli (1 C/s) that were terminated when the subject pressed a button.

[5] = tested on: young male subjects, UVB-irradiated skin; assay: UVB sunburn model in humans, mechanical detection threshold (MDT) to von Frey hairs; assay type: in vivo, human; conditions: baseline Day (−1) before the sunburn; for MDT feel sensation, Post sunburn - Change from Baseline: pre-dose
Experimental: as §1, §2, §3, §4
Mechanical detection threshold (MDT) to von Frey hairs was assessed by using a standardized set of modified von Frey hairs (Optihair; Marstock Nervtest, Marburg, Germany) exerting forces between 0.25 and 512 mN (rounded tip, 0.5 mm in diameter). Thresholds were determined by the method of limits with the geometric mean of a series of 5 ascending and descending stimulus intensities.

[6] = Test conc 0.1 μM, vs 0.1 μM capsaicin
[7] = read-out: Normalized % inhibition

T1 sequence (Q8NER1 whole entry, species assumed): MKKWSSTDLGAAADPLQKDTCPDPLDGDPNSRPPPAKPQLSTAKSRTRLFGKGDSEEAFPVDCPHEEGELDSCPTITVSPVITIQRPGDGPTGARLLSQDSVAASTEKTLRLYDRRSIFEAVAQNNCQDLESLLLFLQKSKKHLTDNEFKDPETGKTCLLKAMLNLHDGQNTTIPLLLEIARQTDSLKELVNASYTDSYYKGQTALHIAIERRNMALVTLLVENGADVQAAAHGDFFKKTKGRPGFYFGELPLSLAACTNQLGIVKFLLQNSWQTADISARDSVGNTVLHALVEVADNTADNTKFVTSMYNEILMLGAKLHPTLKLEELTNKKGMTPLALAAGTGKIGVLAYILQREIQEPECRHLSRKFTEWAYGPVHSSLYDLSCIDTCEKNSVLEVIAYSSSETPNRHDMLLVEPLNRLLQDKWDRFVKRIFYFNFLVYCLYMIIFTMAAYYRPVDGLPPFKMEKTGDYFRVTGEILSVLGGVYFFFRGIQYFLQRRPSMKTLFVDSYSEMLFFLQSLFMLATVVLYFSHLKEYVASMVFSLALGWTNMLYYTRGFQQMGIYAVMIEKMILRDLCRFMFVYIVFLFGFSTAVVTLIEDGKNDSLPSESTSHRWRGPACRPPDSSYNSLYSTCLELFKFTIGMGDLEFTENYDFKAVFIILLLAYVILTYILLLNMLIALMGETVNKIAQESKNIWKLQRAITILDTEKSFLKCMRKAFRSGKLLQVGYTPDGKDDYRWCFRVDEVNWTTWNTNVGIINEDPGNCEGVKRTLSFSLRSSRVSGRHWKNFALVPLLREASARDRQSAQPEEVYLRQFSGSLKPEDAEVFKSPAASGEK
T2 sequence (Q15858 whole entry): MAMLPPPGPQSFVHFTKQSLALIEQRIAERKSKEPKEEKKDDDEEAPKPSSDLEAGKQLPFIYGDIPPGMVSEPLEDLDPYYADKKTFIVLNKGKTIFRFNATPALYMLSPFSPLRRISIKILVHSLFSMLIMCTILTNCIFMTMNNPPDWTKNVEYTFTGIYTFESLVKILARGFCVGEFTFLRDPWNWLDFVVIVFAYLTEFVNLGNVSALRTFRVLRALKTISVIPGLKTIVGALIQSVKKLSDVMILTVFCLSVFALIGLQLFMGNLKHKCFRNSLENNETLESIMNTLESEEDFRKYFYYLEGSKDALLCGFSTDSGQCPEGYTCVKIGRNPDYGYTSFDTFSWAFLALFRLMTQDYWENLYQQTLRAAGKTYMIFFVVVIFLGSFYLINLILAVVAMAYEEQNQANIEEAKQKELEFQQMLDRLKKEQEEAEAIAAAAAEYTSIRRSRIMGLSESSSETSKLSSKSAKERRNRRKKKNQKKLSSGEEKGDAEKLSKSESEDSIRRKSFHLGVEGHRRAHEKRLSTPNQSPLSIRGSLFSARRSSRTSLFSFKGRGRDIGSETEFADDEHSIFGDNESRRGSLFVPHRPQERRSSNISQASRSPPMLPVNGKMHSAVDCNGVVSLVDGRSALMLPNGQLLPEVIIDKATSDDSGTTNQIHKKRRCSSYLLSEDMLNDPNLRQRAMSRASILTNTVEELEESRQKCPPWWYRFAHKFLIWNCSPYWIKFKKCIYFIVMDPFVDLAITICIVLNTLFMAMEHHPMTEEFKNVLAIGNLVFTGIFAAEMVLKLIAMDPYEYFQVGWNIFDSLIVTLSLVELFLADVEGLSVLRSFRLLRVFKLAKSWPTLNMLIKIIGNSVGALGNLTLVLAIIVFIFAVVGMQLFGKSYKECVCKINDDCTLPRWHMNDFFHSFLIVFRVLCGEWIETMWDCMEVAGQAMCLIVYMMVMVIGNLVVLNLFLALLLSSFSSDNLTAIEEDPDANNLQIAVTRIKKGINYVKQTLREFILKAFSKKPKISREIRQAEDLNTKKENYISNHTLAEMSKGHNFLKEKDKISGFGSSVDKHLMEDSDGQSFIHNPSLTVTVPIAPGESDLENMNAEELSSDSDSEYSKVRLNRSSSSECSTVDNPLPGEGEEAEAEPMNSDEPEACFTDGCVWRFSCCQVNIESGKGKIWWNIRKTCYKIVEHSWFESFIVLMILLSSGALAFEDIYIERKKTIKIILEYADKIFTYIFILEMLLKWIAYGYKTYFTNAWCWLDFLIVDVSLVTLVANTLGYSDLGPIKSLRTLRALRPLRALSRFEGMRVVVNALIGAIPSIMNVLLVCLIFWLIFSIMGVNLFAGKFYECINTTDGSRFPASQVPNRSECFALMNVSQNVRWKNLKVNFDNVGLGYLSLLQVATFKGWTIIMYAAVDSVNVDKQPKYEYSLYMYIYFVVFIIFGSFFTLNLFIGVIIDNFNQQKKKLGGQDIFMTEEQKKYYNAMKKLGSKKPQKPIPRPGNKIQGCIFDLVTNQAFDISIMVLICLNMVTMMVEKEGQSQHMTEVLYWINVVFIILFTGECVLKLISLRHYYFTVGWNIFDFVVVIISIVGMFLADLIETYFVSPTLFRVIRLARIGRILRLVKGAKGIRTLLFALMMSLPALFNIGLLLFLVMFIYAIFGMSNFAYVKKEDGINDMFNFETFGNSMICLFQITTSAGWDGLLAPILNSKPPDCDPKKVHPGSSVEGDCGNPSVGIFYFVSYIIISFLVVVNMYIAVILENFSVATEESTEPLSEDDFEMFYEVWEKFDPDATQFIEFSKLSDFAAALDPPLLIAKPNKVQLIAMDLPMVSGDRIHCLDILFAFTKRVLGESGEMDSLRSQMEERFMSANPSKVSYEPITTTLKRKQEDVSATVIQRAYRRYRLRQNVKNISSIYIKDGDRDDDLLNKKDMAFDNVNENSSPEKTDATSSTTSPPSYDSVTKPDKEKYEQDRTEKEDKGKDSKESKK

Row | SMILES | inhibitory effect on TRPV1 mediated calcium influx (in words) (TRPV1 [1]) | inhibition at 0.1 µM (TRPV1 [1]; [6]) | inhibition at 0.5 µM (TRPV1 [1]; vs 0.1 μM capsaicin) | inhibition at 1 µM (TRPV1 [1]; vs 0.1 μM capsaicin) | inhibition at 5 µM (TRPV1 [1]; vs 0.1 μM capsaicin) | inhibition at 10 µM (TRPV1 [1]; vs 0.1 μM capsaicin) | Normalized % Activation (TRPV1 [2]; Test conc 0.1 μM) | Normalized % Activation (TRPV1 [2]; Test conc 0.5 μM) | Normalized % Activation (TRPV1 [2]; Test conc 1 μM) | Normalized % Activation (TRPV1 [2]; Test conc 5 μM) | Normalized % Activation (TRPV1 [2]; Test conc 10 μM) | further results
1 | COc1ccc2[nH]cc(CCNC(=O)c3cc(=O)cco3)c2c1 [N-[2-(5-methoxy-indol-3-yl)-ethyl]-comanilamide] | significant inhibitory effect | 15.2% | 1.19% | 36.4% | 35.4% | 42.6% | 18.12% | 11.95% | 14.04% | 12.92% | 13.67% | –
2 | COc1ccc2[nH]cc(CCNC(=O)Oc3c(C)occc3=O)c2c1 [2-methyl-4-oxo-4H-pyran-3-yl [2-(5-methoxy-1H-indol-3-yl)ethyl]carbamate] | significant inhibitory effect | – | – | – | – | – | 12.65% | 9.58% | 12.16% | 5.75% | 12.26% | inhibition of the licking response, early phase [3]: 54%; inhibition of the licking response, late phase [3]: 86%; inhibition at 0.1 µM (TRPV1 [1]): -1.78%; inhibition at 0.5 µM (TRPV1 [2]; [7]): 23.6%; inhibition at 1 µM (TRPV1 [2]; [7]): 45.1%; inhibition at 5 µM (TRPV1 [2]; [7]): 44.6%; inhibition at 10 µM (TRPV1 [2]; [7]): 41.5%
3 | O=C(NCCc1c[nH]c2ccccc12)c1cc(=O)cco1 [N-[2-(1H-indol-3-yl)-ethyl]-comanilamide] | significant inhibitory effect | 9.88% | 2.44% | 31.1% | 26.1% | 37.7% | 23.07% | 11.93% | 10.51% | 8.71% | 10.13% | inhibition of the licking response, early phase ([3]; 100 mg/kg): 57% and 38%; inhibition of the licking response, late phase ([3]; 100 mg/kg): 90% and 62%; selectivity among hNav1.x channels (in words) (hNav1.7): preferential inhibition of Nav1.7 channels; CPT, Post sunburn ([4]; 600 mg group, after UVB, pre-dose): 16.03 °C; CPT, Pre sunburn ([4]; 600 mg group, before UVB and before dosing): 5.55 °C; CPT, 2.5 h Post Drug Administration ([4]; 600 mg, 2.5 h post dose): 12.75 °C; time of peak response post dosing ([4]; human UVB sunburn model, analgesic/anti-pruritus effects): 2.5 h; MDT feel sensation, Post sunburn - Change from Baseline ([5]; 300 mg group): −10.92 mN; MDT feel sensation, 2.5 h post Drug administration - Change from Baseline ([5]; 300 mg): −12.13 mN; MDT feel sensation, Post sunburn - Change from Baseline ([5]; 600 mg group): −3.52 mN; MDT feel sensation, 2.5 h post Drug administration - Change from Baseline ([5]; 600 mg): −0.017 mN; MDT feel sensation, Post sunburn - Change from Baseline ([5]; 900 mg group): −7.24 mN; MDT feel sensation, 2.5 h post Drug administration - Change from Baseline ([5]; 900 mg): 0.84 mN
